From patent US11261186B2, “Biaryl derivative as GPR120 agonist” (LG CHEM, LTD., priority 2014, dated 2022)

Molecular target: T1, hGPR120 (Homo sapiens, UniProt Q5NUL3)
T1 construct: expressed in transfected cells; host or cells: CHO-K1
T1 sequence (Q5NUL3 1-361): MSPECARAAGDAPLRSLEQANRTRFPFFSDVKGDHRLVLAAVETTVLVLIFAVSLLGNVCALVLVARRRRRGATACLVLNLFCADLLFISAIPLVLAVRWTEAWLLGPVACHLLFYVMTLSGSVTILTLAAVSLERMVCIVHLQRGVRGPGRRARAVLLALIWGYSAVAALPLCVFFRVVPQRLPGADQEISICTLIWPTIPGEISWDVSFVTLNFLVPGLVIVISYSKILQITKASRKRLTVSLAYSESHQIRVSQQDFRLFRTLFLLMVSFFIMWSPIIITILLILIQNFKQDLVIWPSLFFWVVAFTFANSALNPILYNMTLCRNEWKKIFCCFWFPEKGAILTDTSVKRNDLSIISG
Assay: Measurement of Activity of GPR120 Agonist (Cell-Based Assay), Calcium 5 dye fluorescence
Conditions: CHO-K1 cells expressing Ga16 and hGPR120
Outline: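 CHO-K1 cells co-expressing Gα16 and hGPR120 were seeded, cultured 18 h at 37 °C, then loaded 1 h with Calcium 5 dye. Serially diluted agonists (final 0.5% DMSO) were added and fluorescence read at Ex 485/Em 525 nm, expressed as percent relative to 1% DMSO-only wells.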

SMILES	EC50
CC(CCCC(=O)O)c1c(F)cc(-c2cccnc2OC2CCCC2)cc1F (stereo not drawn) [Example 51, 5-[4-(2-cyclopentoxy-3-pyridyl)-2,6-difluoro-phenyl]hexanoic acid]	< 200 nM
O=C(O)CCC1CCc2cc(-c3cccc(OC4CCCC4)c3)ccc2O1 (stereo not drawn) [Example 448, 3-[6-[3-(cyclopentoxy)phenyl]chroman-2-yl]propanoic acid]	< 200 nM
CN(CCCC(=O)O)c1c(F)cc(-c2cccc(OC3CCC3)c2)cc1F [Example 199, 4-[(3′-cyclobutoxy-3,5-difluoro-biphenyl-4-yl)-methyl-amino]-butyric acid]	< 200 nM
CC(C)Cc1cncc(-c2cc(F)c(N3CCC(CC(=O)O)CC3)c(F)c2)n1 [Example 364, 2-[1-[2,6-difluoro-4-(6-isobutylpyrazin-2-yl)phenyl]-4-piperidyl]acetic acid]	200 to 2000 nM
CC(CCCC(=O)O)c1c(F)cc(-c2cc(F)cc(OC3CCC3)c2)cc1F (stereo not drawn) [Example 411, 5-(5′-cyclobutoxy-3,5,3′-trifluoro-biphenyl-4-yl)-hexanoic acid]	< 200 nM
O=C(O)COc1ccc2cc(-c3cccc(OC4CCCC4)n3)ccc2c1 [Example 3, [6-(6-cyclopentyloxy-pyridin-2-yl)-naphthalen-2-yloxy]-acetic acid]	200 to 2000 nM
O=C(O)CC1CCN(c2c(F)cc(-c3cccc(CC4CCCC4)n3)cc2F)CC1 [Example 376, 2-[1-[4-[6-(cyclopentylmethyl)-2-pyridyl]-2,6-difluoro-phenyl]-4-piperidyl]acetic acid]	200 to 2000 nM
CC(C)Sc1ncccc1-c1cc(F)c2c(c1)CCC(CCC(=O)O)S2 (stereo not drawn) [Example 440, 3-[8-fluoro-6-(2-isopropylsulfanyl-3-pyridyl)thiochroman-2-yl]propanoic acid]	200 to 2000 nM
O=C(O)CC1CCN(c2ccc(-c3cccc(OC4CCC4)n3)cc2F)CC1 [Example 320, 2-[1-[4-[6-(cyclobutoxy)-2-pyridyl]-2-fluoro-phenyl]-4-piperidyl]acetic acid]	200 to 2000 nM
Cc1cc(Oc2cccc(C(F)(F)F)c2)nc(-c2cc(F)c(N3CCC(CC(=O)O)CC3)c(F)c2)n1 [Example 613, 2-[1-[2,6-difluoro-4-[4-methyl-6-[3-(trifluoromethyl)phenoxy]pyrimidin-2-yl]phenyl]-4-piperidyl]acetic acid]	2000 to 20000 nM
Cc1cc(-c2cc(F)c(N3CCC(CC(=O)O)CC3)c(F)c2)nc(OC2CCC2)n1 [Example 325, 2-[1-[4-[2-(cyclobutoxy)-6-methyl-pyrimidin-4-yl]-2,6-difluoro-phenyl]-4-piperidyl]acetic acid]	200 to 2000 nM
O=C(O)CC1CCN(c2c(F)cc(-c3csc(OC4CCC4)n3)cc2F)CC1 [Example 326, 2-[1-[4-[2-(cyclobutoxy)thiazol-4-yl]-2,6-difluoro-phenyl]-4-piperidyl]acetic acid]	200 to 2000 nM
O=C(O)CC1CCN(c2c(F)cc(-c3cccc(CC4CCC4)n3)cc2F)CC1 [Example 375, 2-[1-[4-[6-(cyclobutylmethyl)-2-pyridyl]-2,6-difluoro-phenyl]-4-piperidyl]acetic acid]	200 to 2000 nM
CC(CCCC(=O)O)c1c(F)cc(-c2cccc(OC3CCCC3)n2)cc1F (stereo not drawn) [Example 56, 5-[4-(6-cyclopentoxy-2-pyridyl)-2,6-difluoro-phenyl]hexanoic acid]	< 200 nM
Cc1nc(COCC2CC2)c(-c2cc(F)c(N3CCC(CC(=O)O)CC3)c(F)c2)s1 [Example 570, {1-[4-(4-cyclopropylmethoxymethyl-2-methyl-thiazol-5-yl)-2,6-difluoro-phenyl]-piperidin-4-yl}-acetic acid]	200 to 2000 nM
O=C(O)CC1CCN(c2c(F)cc(-c3cccc(OCC4CC4)n3)cc2Cl)CC1 [Example 307, 2-[1-[2-chloro-4-[6-(cyclopropylmethoxy)-2-pyridyl]-6-fluoro-phenyl]-4-piperidyl]acetic acid]	200 to 2000 nM
O=C(O)CC1CCN(c2c(F)cc(-c3cccnc3SC3CCC3)cc2F)CC1 [Example 118, 2-[1-[4-(2-cyclobutylsulfanyl-3-pyridyl)-2,6-difluoro-phenyl]-4-piperidyl]acetic acid]	200 to 2000 nM
CC(C)CNc1cncc(-c2cc(F)c(N3CCC(CC(=O)O)CC3)c(F)c2)n1 [Example 356, 2-[1-[2,6-difluoro-4-[6-(isobutylamino)pyrazin-2-yl]phenyl]-4-piperidyl]acetic acid]	200 to 2000 nM
O=C(O)CCCOc1c(F)cc(-c2cccc(OC3CCC3)n2)cc1Cl [Example 385, 4-[2-chloro-4-[6-(cyclobutoxy)-2-pyridyl]-6-fluoro-phenoxy]butanoic acid]	< 200 nM
Oc1ccc(COc2c(F)cc(-c3cccnc3OC3CCCC3)cc2F)cn1 [Example 79, 5-[[4-[2-(cyclopentoxy)-3-pyridyl]-2,6-difluoro-phenoxy]methyl]pyridin-2-ol]	2000 to 20000 nM

Other lines, results leading:

EC50	SMILES
200 to 2000 nM	O=C(O)CC1CCN(c2c(F)cc(-c3cccc(OCC4CCC4)n3)cc2F)C1 (stereo not drawn) [Example 564, {1-[4-(6-cyclobutylmethoxy-pyridin-2-yl)-2,6-difluoro-phenyl]-pyrrolidin-3-yl}-acetic acid]
< 200 nM	CC(C)(C)Sc1cccc(-c2ccc3c(c2)CCC(CCC(=O)O)O3)n1 (stereo not drawn) [Example 451, 3-[6-(6-tert-butylsulfanyl-2-pyridyl)chroman-2-yl]propanoic acid]
200 to 2000 nM	Cc1cccc(-c2cc3c(-c4cc(F)c(N5CCC(CC(=O)O)CC5)c(F)c4)cccc3s2)c1 [Example 616, {1-[2,6-difluoro-4-(2-m-tolyl-benzo[b]thiophen-4-yl)-phenyl]-piperidin-4-yl}-acetic acid]
< 200 nM	COc1ccc(-c2cc(F)c(SCCCC(=O)O)c(F)c2)c2c1OC(C)(C)C2 [Example 258, 4-[2,6-difluoro-4-(7-methoxy-2,2-dimethyl-2,3-dihydro-benzofuran-4-yl)-phenylsulfanyl]-butyric acid]
< 200 nM	O=C(O)CCCSc1c(F)cc(-c2cccc3c2OC2(CCCC2)C3)cc1F [Example 262, 4-(2,6-difluoro-4-spiro[3H-benzofuran-2,1′-cyclopentan]-7-yl-phenylsulfanyl)-butyric acid]
< 200 nM	O=C(O)CCCCc1ccc(-c2cccnc2OC2CCCC2)cc1F [Example 244, 5-[4-(2-cyclopentyloxy-pyridin-3-yl)-2-fluoro-phenyl]-pentanoic acid]
< 200 nM	O=C(O)CC1CCN(c2c(F)cc(-c3nccc(OCC4CC4)n3)cc2F)CC1 [Example 332, 2-[1-[4-[4-(cyclopropylmethoxy)pyrimidin-2-yl]-2,6-difluoro-phenyl]-4-piperidyl]acetic acid]
< 200 nM	CCSc1ncccc1-c1cc(F)c(N(C)CCCC(=O)O)c(F)c1 [Example 208, 4-{[4-(2-ethylsulfanyl-pyridin-3-yl)-2,6-difluoro-phenyl]-methyl-amino}-butyric acid]
< 200 nM	CC(CCCC(=O)O)c1c(F)cc(-c2cccnc2SC2CCCC2)cc1F (stereo not drawn) [Example 49, 5-[4-(2-cyclopentylsulfanyl-3-pyridyl)-2,6-difluoro-phenyl]hexanoic acid]
< 200 nM	O=C(O)CCCOc1c(F)cc(-c2cccc3c2OC2(CCCC2)O3)cc1F [Example 287, 4-(2,6-difluoro-4-spiro[1,3-benzodioxol-2,1′-cyclopentan]-4-yl-phenoxy)butanoic acid]
< 200 nM	O=C(O)CCC1CCc2cc(-c3cccnc3OC3CCCC3)ccc2O1 (stereo not drawn) [Example 10, 3-[6-(2-cyclopentyloxy-pyridin-3-yl)-chroman-2-yl]-propionic acid]
< 200 nM	O=C(O)CCC1CC1c1c(F)cc(-c2cccnc2SC2CCC2)cc1F (stereo not drawn) [Example 176, 3-{2-[4-(2-cyclobutylsulfanyl-pyridin-3-yl)-2,6-difluoro-phenyl]-cyclopropyl}-propanoic acid]
< 200 nM	O=C(O)C1CC1COc1c(F)cc(-c2cccc(OCC3CC3)n2)cc1F (stereo not drawn) [Example 549, 2-[4-(6-cyclopropylmethoxy-pyridin-2-yl)-2,6-difluoro-phenoxymethyl]-cyclopropanecarboxylic acid]
< 200 nM	CC(C)Sc1cccc(-c2ccc(C(F)(F)CCCC(=O)O)cc2)n1 [Example 192, 5,5-difluoro-5-[4-(6-isopropylsulfanyl-pyridin-2-yl)-phenyl]-pentanoic acid]
< 200 nM	O=C(O)CC1CCN(c2c(F)cc(-c3nccc(Oc4ccc(F)c(F)c4)n3)cc2F)CC1 [Example 517, 2-[1-[4-[4-(3,4-difluorophenoxy)pyrimidin-2-yl]-2,6-difluoro-phenyl]-4-piperidyl]acetic acid]
< 200 nM	O=C(O)CCCCc1c(F)cc(-c2cccnc2OCC2CCC2)cc1F [Example 250, 5-[4-(2-cyclobutylmethoxy-pyridin-3-yl)-2,6-difluoro-phenyl]-pentanoic acid]
< 200 nM	COc1ccc(-c2cc(F)c(OCCCC(=O)O)c(F)c2)nc1OCC1CC1 [Example 459, 4-[4-[6-(cyclopropylmethoxy)-5-methoxy-2-pyridyl]-2,6-difluoro-phenoxy]butanoic acid]
< 200 nM	O=C(O)CCCOc1c(F)cc(-c2sccc2COCC2CC2)cc1F [Example 574, 4-[4-(3-cyclopropylmethoxymethyl-thiophen-2-yl)-2,6-difluoro-phenoxy]-butanoic acid]
< 200 nM	CC(CCCC(=O)O)c1c(F)cc(-c2cccc3c2OC2(CCCC2)O3)cc1F (stereo not drawn) [Example 450, 5-(2,6-difluoro-4-spiro[1,3-benzodioxol-2,1′-cyclopentan]-4-yl-phenyl)hexanoic acid]
